# ChEMBL document CHEMBL1201862, “PubChem BioAssay data set” (2004)
# Activity calls are given as the source filed them.
# Experiments:
# [1] = biological target: FAD-linked sulfhydryl oxidase ALR (Homo sapiens, UniProt P55789); test: ALR-catalysed DTT oxidation blockers – biochemical, H2O2 detection, luminescence, cherry-pick, dose response (AID 493248)
# Large T antigen = Large T antigen (Simian virus 40, UniProt P03070); format: functional, Betapolyomavirus macacae;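 also: Confirmatory-stage PubChem screen for compounds that inhibit SV40 T antigen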
# Large T antigen, sequence (P03070 whole entry): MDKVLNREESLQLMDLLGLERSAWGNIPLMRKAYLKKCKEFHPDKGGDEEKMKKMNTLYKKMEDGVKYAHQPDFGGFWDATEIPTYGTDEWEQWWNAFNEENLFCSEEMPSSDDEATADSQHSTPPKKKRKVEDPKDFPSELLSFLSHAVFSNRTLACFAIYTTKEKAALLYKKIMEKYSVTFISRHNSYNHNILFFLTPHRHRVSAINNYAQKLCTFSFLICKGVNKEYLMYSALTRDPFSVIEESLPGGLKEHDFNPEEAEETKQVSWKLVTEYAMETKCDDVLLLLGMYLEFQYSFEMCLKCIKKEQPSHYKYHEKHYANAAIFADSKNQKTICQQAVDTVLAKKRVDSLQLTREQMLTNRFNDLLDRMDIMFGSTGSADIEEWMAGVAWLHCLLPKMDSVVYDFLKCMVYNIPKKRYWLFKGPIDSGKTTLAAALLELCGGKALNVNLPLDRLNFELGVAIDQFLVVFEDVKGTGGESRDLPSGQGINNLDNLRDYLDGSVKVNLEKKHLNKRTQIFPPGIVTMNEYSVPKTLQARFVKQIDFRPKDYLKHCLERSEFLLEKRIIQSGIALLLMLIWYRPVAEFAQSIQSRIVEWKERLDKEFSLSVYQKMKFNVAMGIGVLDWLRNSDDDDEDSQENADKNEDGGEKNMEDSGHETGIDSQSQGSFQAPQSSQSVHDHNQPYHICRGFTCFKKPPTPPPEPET
# Paired box protein Pax-8 = Paired box protein Pax-8 (Homo sapiens, UniProt Q06710); test: PAX8 transcriptional activity inhibition in RMG-I – RMG-I cells, luciferase, cherry-pick, dose response (AID 687027); format: functional, cell-based;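 also: luciferase reporter driven by Pax8 target thyroperoxidase promoter measured by SteadyGlo luminescence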
# Paired box protein Pax-8, sequence (Q06710 whole entry): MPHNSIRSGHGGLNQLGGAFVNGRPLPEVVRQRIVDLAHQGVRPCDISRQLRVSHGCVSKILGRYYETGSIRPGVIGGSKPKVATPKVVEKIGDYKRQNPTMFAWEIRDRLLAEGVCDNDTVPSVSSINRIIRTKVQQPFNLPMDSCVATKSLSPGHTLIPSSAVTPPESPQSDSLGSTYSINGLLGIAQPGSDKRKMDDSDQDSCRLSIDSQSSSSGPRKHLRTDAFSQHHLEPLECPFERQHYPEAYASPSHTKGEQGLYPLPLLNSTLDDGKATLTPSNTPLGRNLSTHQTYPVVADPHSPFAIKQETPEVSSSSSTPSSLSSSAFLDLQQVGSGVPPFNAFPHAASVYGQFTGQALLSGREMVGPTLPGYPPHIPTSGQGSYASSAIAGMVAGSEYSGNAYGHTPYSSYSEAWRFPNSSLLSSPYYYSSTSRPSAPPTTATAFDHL
# Aminopeptidase N = biological target: T1, Aminopeptidase N (Plasmodium falciparum FcB1/Columbia, UniProt O96935); test: malaria alanyl aminopeptidase activity blockers – biochemical, fluorogenic H-Leu-NHMec substrate, 1536-well (AID 1445); design: species or system Plasmodium falciparum 3D7, 3D7
# T1 sequence (O96935 whole entry): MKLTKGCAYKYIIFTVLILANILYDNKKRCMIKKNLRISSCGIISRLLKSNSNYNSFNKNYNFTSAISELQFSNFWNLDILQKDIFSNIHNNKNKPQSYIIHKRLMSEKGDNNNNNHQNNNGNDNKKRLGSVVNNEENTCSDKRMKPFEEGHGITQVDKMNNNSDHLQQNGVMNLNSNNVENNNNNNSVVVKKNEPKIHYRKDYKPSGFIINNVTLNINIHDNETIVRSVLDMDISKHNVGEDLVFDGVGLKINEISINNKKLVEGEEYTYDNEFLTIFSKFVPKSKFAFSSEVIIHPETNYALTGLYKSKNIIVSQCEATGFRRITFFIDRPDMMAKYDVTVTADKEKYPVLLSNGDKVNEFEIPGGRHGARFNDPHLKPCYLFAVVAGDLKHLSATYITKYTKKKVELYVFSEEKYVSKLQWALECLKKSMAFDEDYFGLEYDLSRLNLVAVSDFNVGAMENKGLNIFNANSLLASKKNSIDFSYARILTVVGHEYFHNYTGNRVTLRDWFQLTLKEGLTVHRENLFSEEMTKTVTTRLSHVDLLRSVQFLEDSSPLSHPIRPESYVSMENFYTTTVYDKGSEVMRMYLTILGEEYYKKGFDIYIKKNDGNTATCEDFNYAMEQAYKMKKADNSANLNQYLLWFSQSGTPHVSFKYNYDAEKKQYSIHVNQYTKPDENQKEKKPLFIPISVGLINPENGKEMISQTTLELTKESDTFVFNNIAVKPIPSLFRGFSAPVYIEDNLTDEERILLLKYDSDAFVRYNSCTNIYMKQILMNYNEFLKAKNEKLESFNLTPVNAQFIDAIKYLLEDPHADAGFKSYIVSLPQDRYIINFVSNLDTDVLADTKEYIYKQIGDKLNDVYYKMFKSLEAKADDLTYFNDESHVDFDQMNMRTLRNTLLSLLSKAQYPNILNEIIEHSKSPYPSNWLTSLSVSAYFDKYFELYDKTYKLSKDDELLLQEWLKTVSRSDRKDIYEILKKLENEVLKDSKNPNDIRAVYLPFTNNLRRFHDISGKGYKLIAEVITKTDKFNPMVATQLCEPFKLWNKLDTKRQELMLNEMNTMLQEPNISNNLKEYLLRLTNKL
# Leucine aminopeptidase = biological target: T2, Leucine aminopeptidase (Plasmodium falciparum 3D7, UniProt Q8IL11); test: P. falciparum M17LAP inhibitors, primary screen, biochemical, fluorogenic H-Leu-NHMec substrate, 1536-well (AID 1619); format: functional
# T2 sequence (Q8IL11 whole entry): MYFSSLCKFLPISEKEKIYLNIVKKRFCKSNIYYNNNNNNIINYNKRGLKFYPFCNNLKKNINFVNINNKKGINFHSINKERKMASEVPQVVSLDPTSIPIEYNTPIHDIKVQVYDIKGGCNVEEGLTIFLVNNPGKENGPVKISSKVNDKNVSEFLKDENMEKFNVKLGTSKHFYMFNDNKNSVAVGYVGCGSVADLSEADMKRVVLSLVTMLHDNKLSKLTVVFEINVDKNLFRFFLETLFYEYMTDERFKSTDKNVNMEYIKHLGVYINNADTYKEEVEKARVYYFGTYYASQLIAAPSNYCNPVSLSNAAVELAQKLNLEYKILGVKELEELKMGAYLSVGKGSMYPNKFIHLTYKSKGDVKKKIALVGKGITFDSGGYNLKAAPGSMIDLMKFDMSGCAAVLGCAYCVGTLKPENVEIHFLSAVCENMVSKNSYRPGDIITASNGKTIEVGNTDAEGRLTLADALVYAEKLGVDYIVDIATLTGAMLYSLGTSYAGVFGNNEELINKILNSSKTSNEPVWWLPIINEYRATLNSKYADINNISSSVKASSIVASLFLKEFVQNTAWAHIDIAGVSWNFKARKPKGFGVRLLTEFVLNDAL
# [2] = biological target: T3, Heat shock factor protein 1 (Mus musculus, UniProt P38532); test: enhancement of HSF1-driven luciferase signal – cell-based, NIH3T3, luminescence, dose retest, confirmation (AID 435004); format: functional;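 also: stress induced by proteasome inhibitor MG132 added 30 min after compound; luciferase reporter driven by HSF1 response element in NIH3T3 cells; actives raise luminescence as potentiators of the MG132 stress response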
# T3 sequence (P38532 whole entry): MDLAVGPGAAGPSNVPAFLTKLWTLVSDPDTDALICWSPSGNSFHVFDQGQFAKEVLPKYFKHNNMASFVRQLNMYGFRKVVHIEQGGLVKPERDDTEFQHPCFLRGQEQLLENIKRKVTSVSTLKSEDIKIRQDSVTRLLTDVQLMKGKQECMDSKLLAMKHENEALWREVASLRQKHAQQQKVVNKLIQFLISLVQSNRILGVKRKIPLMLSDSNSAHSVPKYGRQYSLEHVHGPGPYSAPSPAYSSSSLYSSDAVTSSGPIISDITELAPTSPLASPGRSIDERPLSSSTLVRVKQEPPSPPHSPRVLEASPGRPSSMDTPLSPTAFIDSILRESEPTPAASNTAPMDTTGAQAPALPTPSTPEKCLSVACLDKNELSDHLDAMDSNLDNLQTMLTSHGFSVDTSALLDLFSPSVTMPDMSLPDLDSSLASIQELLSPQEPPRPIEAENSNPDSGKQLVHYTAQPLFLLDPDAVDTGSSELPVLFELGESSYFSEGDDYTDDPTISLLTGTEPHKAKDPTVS
# [3] = blockers of HIV-1 ZM109 envelope-driven cell-cell fusion – HeLa effector, CEM target cells, luciferase, cherry-pick, dose response (AID 652058); format: functional, cell-based;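 also: luciferase signal from HIV-1 Env mediated cell-cell fusion of effector and target cells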
# [4] = HIV-1 AD8 envelope cell-cell fusion blockers – cherry-pick, dose response (AID 652062); format: functional, cell-based;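 also: luciferase signal from cell-cell fusion driven by HIV-1 clade B AD8 Env; potency is for inhibitors of fusion seen as a drop in luminescence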
# [5] = biological target: T4, Replicative DNA helicase DnaB (Mycobacterium tuberculosis, UniProt P9WMR3); test: DnaB intein splicing inhibitors, dose response, biochemical, cell-free fluorescence (AID 449749); format: functional
# T4 sequence (P9WMR3 whole entry): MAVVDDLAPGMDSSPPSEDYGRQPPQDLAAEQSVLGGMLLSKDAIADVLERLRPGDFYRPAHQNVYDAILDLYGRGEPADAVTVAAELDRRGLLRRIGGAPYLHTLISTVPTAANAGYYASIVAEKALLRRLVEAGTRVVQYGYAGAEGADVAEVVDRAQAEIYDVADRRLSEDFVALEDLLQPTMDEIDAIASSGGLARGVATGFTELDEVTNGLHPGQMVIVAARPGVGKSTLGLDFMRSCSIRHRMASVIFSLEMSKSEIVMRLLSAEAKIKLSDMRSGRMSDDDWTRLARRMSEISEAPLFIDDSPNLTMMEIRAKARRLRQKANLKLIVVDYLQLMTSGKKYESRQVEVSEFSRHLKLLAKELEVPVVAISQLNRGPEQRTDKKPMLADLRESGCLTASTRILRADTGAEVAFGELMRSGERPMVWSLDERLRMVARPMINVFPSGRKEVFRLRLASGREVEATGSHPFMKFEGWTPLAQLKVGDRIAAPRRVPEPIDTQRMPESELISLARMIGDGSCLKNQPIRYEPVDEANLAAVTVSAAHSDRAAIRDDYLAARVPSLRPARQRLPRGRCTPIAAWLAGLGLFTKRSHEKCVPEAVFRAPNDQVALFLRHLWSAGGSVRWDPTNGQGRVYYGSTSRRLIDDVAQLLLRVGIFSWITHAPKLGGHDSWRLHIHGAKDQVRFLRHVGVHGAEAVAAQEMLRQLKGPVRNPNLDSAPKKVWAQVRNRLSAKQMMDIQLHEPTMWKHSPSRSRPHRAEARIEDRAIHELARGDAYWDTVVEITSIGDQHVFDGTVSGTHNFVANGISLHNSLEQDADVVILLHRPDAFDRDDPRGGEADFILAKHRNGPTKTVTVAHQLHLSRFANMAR
# Protein RecA = biological target: T5, Protein RecA (Mycobacterium tuberculosis, UniProt P9WHJ3); test: Fluorescence Cell-Free Homogeneous Dose Retest to Identify Inhibitors of RecA-Intein Splicing Activity. [Related pubchem assays (depositor defined):AID2097, AID2223, AID489010, AID492950]; format: functional
# T5 sequence (P9WHJ3 whole entry): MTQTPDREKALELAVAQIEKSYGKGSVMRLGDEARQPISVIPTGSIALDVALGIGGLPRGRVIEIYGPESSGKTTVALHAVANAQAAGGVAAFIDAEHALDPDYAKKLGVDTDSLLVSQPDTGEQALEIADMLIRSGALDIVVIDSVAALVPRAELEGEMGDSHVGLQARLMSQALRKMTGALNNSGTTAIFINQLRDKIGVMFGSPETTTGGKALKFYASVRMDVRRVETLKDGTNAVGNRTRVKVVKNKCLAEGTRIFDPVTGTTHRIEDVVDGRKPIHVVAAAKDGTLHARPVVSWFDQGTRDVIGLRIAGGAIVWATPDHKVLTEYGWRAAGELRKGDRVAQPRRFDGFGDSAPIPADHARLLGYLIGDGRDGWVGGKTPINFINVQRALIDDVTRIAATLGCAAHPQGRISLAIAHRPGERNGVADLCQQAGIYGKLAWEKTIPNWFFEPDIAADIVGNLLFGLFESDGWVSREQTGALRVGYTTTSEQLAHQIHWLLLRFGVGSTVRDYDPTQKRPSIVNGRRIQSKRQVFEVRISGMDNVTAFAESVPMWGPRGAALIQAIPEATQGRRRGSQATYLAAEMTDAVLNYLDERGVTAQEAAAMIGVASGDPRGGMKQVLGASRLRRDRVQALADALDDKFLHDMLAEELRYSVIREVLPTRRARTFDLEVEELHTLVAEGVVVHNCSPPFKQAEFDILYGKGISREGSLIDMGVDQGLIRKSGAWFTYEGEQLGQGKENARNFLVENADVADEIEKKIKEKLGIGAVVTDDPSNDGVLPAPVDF
# [6] = microbe, parasite or virus in culture; format: functional; settings: Mycobacterium tuberculosis
# cells = format: functional
# Streptococcus = test: GAS UMAA2166 growth inhibition – luminescence, BacTiterGlo, counter-screen for streptokinase expression inhibitor project, dose response (AID 1915); format: functional, organism-based;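 also: potency for reduction of bacterial viability or growth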
# [7] = test system: Streptococcus sp. 'group A'; test: Streptococcus pyogenes SK(-)GAS viability under kanamycin – luminescence, BacTiterGlo, confirmation, counter-screen for streptokinase expression inhibitor project, dose response (AID 1900); format: functional, organism-based
# [8] = non-specific 3'UTR reporter inhibition in Clone20-Shn3RL – cell-based, Renilla luciferase, cherry-picked, counter-screen for Shn3 inhibitor project, dose response (AID 624133); format: functional
# INS1 = test: INS-1E survival protection against cytokine death – cell-based, luminescence, retest, dose response (AID 449756); format: functional; settings: Rattus norvegicus;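 also: cell death triggered by IL-1 beta plus TNF-alpha plus IFN-gamma mixture; protective hits raise ATP signal compared with cytokine alone wells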
# [9] = reduction of Shn3 3'UTR-driven luciferase in osteoblasts – cell-based, Clone20 osteoblasts, firefly luciferase, cherry-picked, dose response (AID 624132); format: functional;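 also: firefly luciferase luminescence from reporter carrying the Shn3 3'UTR in osteoblasts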
# P388 = test: cells; format: functional; settings: Mus musculus;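 also: compound exposure lasted 48 hours before growth was measured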
# SN12K1 = test: cells; format: functional; settings: Homo sapiens
# FAD-linked sulfhydryl oxidase ALR, sequence (P55789 whole entry): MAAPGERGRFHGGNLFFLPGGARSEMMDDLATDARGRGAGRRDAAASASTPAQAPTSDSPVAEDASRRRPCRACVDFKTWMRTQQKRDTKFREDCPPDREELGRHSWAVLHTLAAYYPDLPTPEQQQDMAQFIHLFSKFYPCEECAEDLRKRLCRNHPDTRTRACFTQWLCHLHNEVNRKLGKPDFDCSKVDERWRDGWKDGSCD
smiles,measurement,setting,value
COc1cccc(N2CCN(C(=O)C3CCCN(S(=O)(=O)c4c[nH]cn4)C3)CC2)c1 (stereo not drawn),AC50,[1],16.8 µM (active)
O=C(NNc1c2ccccc2nc2ccccc12)c1cccc(O)c1,AC50,[1],0.738 µM (active)
Nc1ccc(Sc2ccccc2CC(=O)O)cc1,IC50,Large T antigen,> 100 µM (active)
Cc1ccnc(NC(c2ccccn2)c2c(C)[nH]c3ccccc23)c1 (stereo not drawn),AC50,[1],1.39 µM (active)
COc1ccc(C(=O)c2ccc(Cl)c([N+](=O)[O-])c2)cc1,AC50,[1],3.95 µM (active)
same,AC50,Paired box protein Pax-8,7.17 µM (active)
COc1cc(/C=C2\SC(=S)N(NS(=O)(=O)c3ccccc3)C2=O)ccc1O,IC50,Aminopeptidase N,24.5 µM (active)
same,IC50,Leucine aminopeptidase,38.8 µM (active)
same,IC50,Large T antigen,14.5 µM (active)
Oc1ccc(-c2nc3cnccn3c2Nc2ccc3c(c2)OCCO3)cc1,EC50,[2],11 µM (active)
same,IC50,Large T antigen,4.14 µM (active)
CC(C)CNS(=O)(=O)c1ccc(CCC(=O)N2CCN(Cc3ccc4c(c3)OCO4)CC2)cc1,AC50,[3],12.1 µM (active)
same,AC50,[4],27.2 µM (active)
Cc1cc(C(=O)CCl)c(C)n1CCc1ccc(Cl)cc1,EC50,[2],> 260 µM (inconclusive)
same,AC50,[5],8.7 µM (active)
same,EC50,Protein RecA,7.32 µM (active)
same,CC50,[6],2.48 µM (active)
COc1ccc2[nH]c3ccc(OC)cc3c2c1,AC50,[1],8.33 µM (active)
Cc1ccc2nccc(C(=O)N3CCCC(Nc4ccc(F)cc4)C3)c2c1 (stereo not drawn),AC50,[1],3.03 µM (active)
CN1CCCNc2nc3ccccc3nc21,AC50,[1],9.27 µM (active)
O=C(Nc1nnc(-c2ccc3c(c2)CCCC3)o1)c1c(F)cccc1F,AC50,[1],7.99 µM (active)
same,IC50,cells,4.08 µM (active)
same,EC50,Streptococcus,7.35 µM (active)
same,EC50,[7],1.77 µM (active)
Clc1ccc(-c2cc(-c3nnc4n3CCCCC4)c3ccccc3n2)cc1,AC50,[8],11.1 µM (active)
same,AC50,INS1,6.17 µM (active)
same,AC50,[9],5.59 µM (active)
Cc1noc(C)c1C(=O)Nc1ccc(N(C)C)cc1,AC50,[1],1.3 µM (active)
CCCCCOc1ccc(/C=N\c2ccc(-c3ccc(/N=C\c4ccc(OCCCCC)cc4)c(OC)c3)cc2OC)cc1,GI50,P388,> 100 µM (inactive)
same,GI50,SN12K1,> 100 µM (inactive)
CC(=O)Nc1ccc(/C=C/c2ccc(NC(=O)Nc3ccc(/C=C/c4ccc(NC(C)=O)cc4S(=O)(=O)O)c(S(=O)(=O)O)c3)cc2S(=O)(=O)O)c(S(=O)(=O)O)c1,GI50,P388,> 100 µM (inactive)
same,GI50,SN12K1,> 100 µM (inactive)
COc1ccc(CC(=O)N/N=C(\C)CC(=O)Nc2ccc(N(C)C)cc2)cc1OC,IC50,Large T antigen,10.1 µM (active)
